pEC50: −log10 of the molar value.

The target of this assay is T1, Free fatty acid receptor 4 (Homo sapiens, UniProt Q5NUL3).
T1 sequence (Q5NUL3 whole entry): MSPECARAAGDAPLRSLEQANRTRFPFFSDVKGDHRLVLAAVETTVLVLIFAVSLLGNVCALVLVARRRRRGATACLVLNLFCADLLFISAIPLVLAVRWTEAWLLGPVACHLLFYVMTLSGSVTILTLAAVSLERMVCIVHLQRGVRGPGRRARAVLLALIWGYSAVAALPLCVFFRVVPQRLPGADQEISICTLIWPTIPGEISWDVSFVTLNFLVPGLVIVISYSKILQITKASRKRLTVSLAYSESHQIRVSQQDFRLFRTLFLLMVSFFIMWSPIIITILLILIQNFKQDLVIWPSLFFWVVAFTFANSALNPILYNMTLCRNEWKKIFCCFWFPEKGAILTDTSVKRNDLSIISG
Description: FLIPR Assay: On the day before the measurement day, CHO cells expressing human GPR120 were plated at 10000 cells per well in a 384-well black plate (#3702, Corning) and incubated overnight in a CO2 incubator. On the day of the measurement, 4 μM Fluo-4 AM (fluorescence calcium indicator reagent) was incubated to be introduced into the human GPR120 expression CHO cells in the presence of 0.08% Pluronic F-127 in a CO2 incubator for 90 minutes. To the cells was added the test compound diluted with HBSS solution containing 20 mM HEPES and 2.5 mM probenecid. Variations in the intracellular calcium concentration were measured by Fluorescence Imaging Plate Reader (FLIPR; Molecular Devices) to examine the agonist action, and EC50 values were calculated. Type of assay: cell-based.
For `OCCC1CCC2(CC1)CCN(c1cc(OC(F)(F)F)ccc1Cl)CC2`, the pEC50 is 6.33.

With `Cc1cccc(Oc2ccc(C#N)c(N3CCC4(CCC(CC(=O)O)CC4)CC3)c2)n1`, the pEC50 was 5.37. Take `O=C(O)C[C@@H]1CCC2(CCN(c3cc(OC4CCC4)ccc3F)CC2)OC1`: the pEC50 was 5.49. The figure for `O=C(O)CC1CCC2(CCN(c3cc(OC(F)(F)F)ccc3F)CC2)OC1` (configuration not stated) is 5.92. Regarding `O=C(O)C[C@H]1CCC2(CCN(c3cc(OC4CCC4)ccc3Cl)CC2)OC1`, the pEC50 is 5.78. The figure for `COc1cc(F)cc(N2CCC3(CC2)CC(CC(=O)O)CO3)c1` (configuration not stated) is 5.62; for `Cc1ccnc(Oc2ccc(C#N)c(N3CCC4(CCC(CC(=O)O)CC4)CC3)c2)c1` it is 5.30.

(Values after ChEMBL document CHEMBL5725500, “Substituted spiropiperidinyl compounds useful as GPR120 agonists” (2017).)
